Results from patent US10987317B2, “Inhibition of glutaminase C” (Cornell University, priority 2009, dated 2021).
“Also recorded” adds a separate entry of the source.

Experiments:
HMECs = assay: Growth of normal mammary epithelial cells; assay type: cell-based, human; details: 10 μM, 6 days
[1] = test system: NIH 3T3 cells stably expressing Cdc42(F28L) and transiently expressing GAC; assay: Focus formation by Cdc42(F28L) plus GAC; assay type: cell-based
Text: (§1) FIGS. 4A-E illustrate the role of glutaminase C activity in cellular transformation. […] Data represent the average of 3 experiments (±s.d.). […] Data represent the average of 3 experiments (±s.d.). […] 100% represents the activity measured in untreated Dbl-transformed cells. The data represent the average of 2 experiments. […] 100% represents the activity measured in untreated SKBR3 cells. The data represent the average of 2 experiments. […] Data represent the average of 3 experiments (±s.d.).

[2] = test system: GA activity in SKBR3 cells; assay: GA activity in mitochondrial fractions; assay type: cell-based, human; details: 10 μM, phosphate-independent
Description: (§2) 100%=620 moles of glutamine hydrolyzed per minute per mole of enzyme. Data represent the average of 3 experiments (±s.d.). […] Following precipitation of the beads and re-suspension, the samples are analyzed by Western blotting with anti-V5 antibody. […] Data represent the average of 3 experiments (±s.d.). […] Data represent the average of 3 experiments (±s.d.). […] Data represent the average of 3 experiments (±s.d.). FIG. 3E NIH 3T3 cells transiently expressing Dbl are assayed for focus formation in the presence of 10 μM 968 alone or together with […] dimethyl α-ketoglutarate. […] 100%=680 nM glutamine hydrolyzed per minute per 10^5 cells. Data are the average of 3 experiments (=s.d.). […] 100%=750 nM glutamine hydrolyzed per minute per 10^5 cells. Data represent the average of 3 experiments (±s.d.).
as §1
FIGS. 11A-E illustrate the effects of different treatments on GA activity. […] The addition of Pi stimulated the GA activity in control 3T3 cells, Dbl-expressing cells, and Cdc42(F28L)-expressing cells by ˜6-fold, 2-fold, and 3-fold, respectively. 100% represents the Pi-stimulated activity measured for Dbl-transformed cells that are not treated with 968. Data is the average of 3 experiments (±s.d.). […] The addition of Pi stimulated the GA activity of HMECs, MDA-MB231 cells, and SKBR3 cells by ˜5-fold, 2-fold, and 1.4-fold, respectively. […] The data are plotted as the percentage of GA activity measured for untreated SKBR3 cells and represent the average of 2 experiments. […] 100% represents the P1-stimulated activity measured for untreateDbl-transformed cells. […]

[3] = test system: NIH 3T3 cells expressing H-Ras(G12V); assay: H-Ras(G12V)-induced transformation (focus formation, growth in low serum); assay type: cell-based; details: focus formation in NIH 3T3 cells or growth in low serum
Text: FIGS. 5A-C illustrate comparative abilities of 968 and other benzo[a]phenanthrldinones to inhibit the transforming activity of oncogenic Dbl and H-Ras. […] Histograms show the relative levels of Dbl-induced focus formation for the different treatments, compared to Dbl-induced focus formation measured in the presence of DMSO (i.e. solvent control). Data represent the average of 3 experiments (mean±s.d.). […] Histograms show the relative levels of Ras(G12V)-induced focus formation measured for the different treatments, compared to Ras(G12V)-induced focus formation measured in the presence of DMSO (solvent control). Data represent the average of 3 experiments (mean±s.d.). FIG. 5C NIH 3T3 cells stably expressing H-Ras(G12V) that are cultured in DMEM supplemented with 1% calf serum, with the indicated amounts of 968. After 6 days, cells are trypsinized and counted. 100% represents the number of cells counted in the absence of 968, i.e. 26×10^4 cells. Data represent the average of 3 experiments (mean±s.d.).

MDA-MB231 cells = assay: Breast cancer cell soft agar colony formation and growth; assay type: cell-based, human; details: 10 μM
Description: FIGS. 2A-G illustrate effects of 968 on the transforming activity of constitutively active Rho GTPases and human breast cancer cells. […] Cells are scored after 14 days and plotted as the percentage of the total number of colonies greater than […] in diameter. Data represent the average of 3 experiments (±s.d.). […] Data represent the average of 3 experiments (±s.d.). […] Data represent the average of 3 experiments (±s.d.). […] After 24 hours at 37° C. the migratory cells are fixed, stained with GIEMSA, and counted. Data represent the average of 3 experiments (±s.d.). […] Data represent the average of 3 experiments (±s.d.). […] Data represent the average of 3 experiments (±s.d.). […] Data represent the average of 3 experiments (±s.d.).

normal NIH 3T3 cells = assay: Growth and morphology of control cells; assay type: cell-based; details: 10% calf serum; 5-10 μM
Description: FIGS. 1A-E illustrate that the small molecule 968 inhibiting cellular transformation. […] Cells were fixed and stained with crystal violet for counting of foci. Right: 968 was serially diluted (10, 5, 2.5, and 1.25 μM) and evaluated for its ability to inhibit focus formation. […] After 6 days, the cells are counted. 100% represents the number of Dbl-transformed cells counted in the absence of 968 (27.5×10^4 cells). Data represent the average of 3 experiments (±s.d.). […] At the indicated times, the cells are counted. Data represent the average of 3 experiments (±s.d.).

[4] = test system: GA activity in MDA-MB231 cells; assay: GA activity in mitochondrial fractions; assay type: cell-based, human; details: 10 μM, phosphate-independent
Description: as §2
FIGS. 11A-E illustrate the effects of different treatments on GA activity. […] The addition of Pi stimulated the GA activity in control 3T3 cells, Dbl-expressing cells, and Cdc42(F28L)-expressing cells by ˜6-fold, 2-fold, and 3-fold, respectively. 100% represents the Pi-stimulated activity measured for Dbl-transformed cells that are not treated with 968. […] The data are plotted as the percentage of GA activity measured for untreated SKBR3 cells and represent the average of 2 experiments. […] 100% represents the P1-stimulated activity measured for untreateDbl-transformed cells. […]

**Q.** With `CN(C)c1ccc(C2Nc3ccc4ccccc4c3C3=C2C(=O)CC(C)(C)C3)cc1Br` (centres unmarked) [Compound 968, 5-[3-bromo-4-(dimethylamino)phenyl]-2,2-dimethyl-2,3,5,6-tetrahydrobenzo[a]] as the compound, how does the “growth of HMECs” value (HMECs) read?
**A.** Its value is “little effect”.

**Q.** What about the focus-forming activity [1] of the same compound?
**A.** The focus-forming activity was “blocked”.

**Q.** What about the “basal GA activity” value [2] of the same compound?
**A.** The value was “sensitive”.

**Q.** What about the “potency on Dbl-induced transformation compared to oncogenic H-Ras” value [3] of the same compound?
**A.** The value was “more potent inhibitor of Dbl-induced transformation”.

**Q.** What about the “colony formation in soft agar” value (MDA-MB231 cells) of the same compound?
**A.** Its value is “inhibits”.

**Q.** And the “growth to high density and in low serum” value (MDA-MB231 cells)?
**A.** Its value is “inhibits”.

**Q.** And the “effect on growth or morphology of normal NIH 3T3 cells” value (normal NIH 3T3 cells)?
**A.** The value was “no significant effects; also recorded: inability”.

**Q.** And the “basal GA activity” value [4]?
**A.** The value was “sensitive”.
